Experimental findings from US11529341B2, “Bicyclic compounds as inhibitors of PD1/PD-L1 interaction/activation” (JUBILANT PRODEL LLC, priority 2018, dated 2022) are described below.

Usually IC50 stands for the concentration needed to halve the response being measured. The low end stands for higher potency, the high end for lower potency.

Bounds are passed on as bounds.

T1 sequence (Q9NZQ7 19-238 limits assumed): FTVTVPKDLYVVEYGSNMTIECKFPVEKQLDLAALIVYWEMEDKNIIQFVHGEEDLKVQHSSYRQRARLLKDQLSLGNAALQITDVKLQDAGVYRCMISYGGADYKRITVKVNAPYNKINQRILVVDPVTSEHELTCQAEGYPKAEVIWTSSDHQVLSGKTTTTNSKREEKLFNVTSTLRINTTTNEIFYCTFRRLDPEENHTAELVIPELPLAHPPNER

This assay addresses T1, PD-1/PD-L1 interaction (Homo sapiens, UniProt Q9NZQ7).
T1 construct: Tag1 (undisclosed kit tag); purchased CisBio 63ADK000CPAPEG
The assay can be described thus: PD-1/PD-L1 Homogenous Time-Resolved Fluorescence (HTRF) binding assay (CisBio kit). As to conditions: Biochemical PD1/PD-L1 inhibition. How it is done: PD-L1 Enzyme Assay: Homogenous Time-Resolved Fluorescence (HTRF) Binding Assay
All binding studies were performed using PD-1/PD-L1 Binding Assay Kit from CisBio (Catalog #63ADK000CPAPEG), according to the manufacturer's protocol. The interaction between Tag1-PD-1 and […] was detected by anti-Tag1-Eu^3+ (HTRF donor) and anti-Tag2-XL665 (HTRF acceptor). When the donor and acceptor antibodies were brought to close proximity due to PD-1 and PD-L1 binding, excitation of the donor antibody triggered fluorescent resonance energy transfer (FRET) towards the acceptor antibody, which in turn emitted specifically at 665 nm. This specific signal is positively proportional to PD-1/PD-L1 interaction. The compounds blocking PD-1/PD-L1 interaction will cause a reduction in HTRF signal. The necessary reagents were mixed in the following order: 2 μl compounds (or diluents buffer), 4 μl PD-L1 protein, 4 μl PD-1 protein. After an incubation of 15 minutes, 5 μl of anti-Tag1-Eu^3+ and 5 μl of anti-Tag2-XL665 were added. The plate was sealed and incubated at room temperature for 1 h. The fluorescence emission was read at two different wavelengths (665 nm and 620 nm) on a BMG PheraStar® multi-plate reader. Results were calculated from the 665 nm and 620 nm fluorescence signal and expressed in HTRF ratio=(665 nm/620 nm)×10^4.
The molecule `Cc1c(COc2cc(OCC3CCCN(C)C3)c(CN3CCCC[C@H]3C(=O)O)c3c2CCC3)cccc1-c1ccccc1` (stereo partly drawn) [Compound 77, (2S)-1-((7-((2-methyl-[1,1′-biphenyl]-3-yl)methoxy)-5-((1-methylpiperidin-3-yl)methoxy)-2,3-dihydro-1H-inden-4-yl)methyl)piperidine-2-carboxylic acid] returned a half-inhibitory concentration (IC50) of less than 100 nM.

Take `COc1cc(OCc2cccc(-c3ccc4c(c3)OCCO4)c2C)c2c(c1CN1C[C@H](O)C[C@H]1C(=O)O)CCC2` [Compound 85, (2S,4R)-1-((7-((3-(2,3-dihydrobenzo[b][1,4]dioxin-6-yl)-2-methylbenzyl)oxy)-5-methoxy-2,3-dihydro-1H-inden-4-yl)methyl)-4-hydroxypyrrolidine-2-carboxylic acid]: the IC50 was in the range of 100 to 500 nM.

`COc1cc(OCc2cccc(-c3ccccc3)c2C)c2c(c1CN1CCCC[C@H]1C(=O)O)CCC2` [Compound 26, (S)-1-((5-methoxy-7-((2-methyl-[1,1′-biphenyl]-3-yl)methoxy)-2,3-dihydro-1H-inden-4-yl)methyl)piperidine-2-carboxylic acid]: the IC50 was 100 to 500 nM.

`COc1cc(OCc2cccc(-c3ccc4c(c3)OCCO4)c2C)c2c(c1CN1CCCC[C@H]1C(=O)O)CCC2` [Compound 84, (S)-1-((7-((3-(2,3-dihydrobenzo[b][1,4]dioxin-6-yl)-2-methylbenzyl)oxy)-5-methoxy-2,3-dihydro-1H-inden-4-yl)methyl)piperidine-2-carboxylic acid] yielded an IC50 of less than 100 nM.

In turn, `CC(=O)NCCNCc1c(OC(C)c2cccc(C#N)c2)cc(OCc2cccc(-c3ccccc3)c2C)c2c1CCC2` (stereo not drawn) [Compound 14, N-(2-(((5-(1-(3-cyanophenyl)ethoxy)-7-((2-methyl-[1,1′-biphenyl]-3-yl)methoxy)-2,3-dihydro-1H-inden-4-yl)methyl)amino)ethyl)acetamide] returned an IC50 of more than 500 nM.

`Cc1c(COc2cc(OCc3cccc(C#N)c3)c(CN3CCCC(O)C3)c3c2CCC3)cccc1-c1ccccc1` (stereo not drawn) [Compound 40, 3-(((4-((3-hydroxypiperidin-1-yl)methyl)-7-((2-methyl-[1,1′-biphenyl]-3-yl)methoxy)-2,3-dihydro-1H-inden-5-yl)oxy)methyl)benzonitrile] gave an IC50 of less than 100 nM.

For the molecule `COc1cc(OCc2cccc(-c3cccc(OCCCN4CCC(F)(F)C4)c3C)c2C)c2c(c1CNCCNC(C)=O)CCC2` [Compound 32, N-(2-(((7-((3′-(3-(3,3-difluoropyrrolidin-1-yl)propoxy)-2,2′-dimethyl-[1,1′-biphenyl]-3-yl)methoxy)-5-methoxy-2,3-dihydro-1H-inden-4-yl)methyl)amino)ethyl)acetamide], the half-inhibitory concentration (IC50) lay in the range of 100 to 500 nM.

Molecule `CC(=O)NCCNCc1c(OC[C@H]2C[C@H]2C(=O)O)cc(OCc2cccc(-c3ccccc3)c2C)c2c1CCC2` [Compound 83, (1R,2S)-2-(((4-(((2-acetamidoethyl)amino)methyl)-7-((2-methyl-[1,1′-biphenyl]-3-yl)methoxy)-2,3-dihydro-1H-inden-5-yl)oxy)methyl)cyclopropane-1-carboxylic acid] yielded an IC50 of 100 to 500 nM.

The molecule `Cc1c(COc2cc(OCC(F)(F)F)c(CN3CCCC[C@H]3C(=O)O)c3c2CCC3)cccc1-c1ccccc1` [Compound 12, (S)-1-((7-((2-methyl-[1,1′-biphenyl]-3-yl)methoxy)-5-(2,2,2-trifluoroethoxy)-2,3-dihydro-1H-inden-4-yl)methyl)piperidine-2-carboxylic acid] returned an IC50 of less than 100 nM.

In turn, `COC(=O)c1cc(CNCCNC(C)=O)c2c(c1OCc1cccc(-c3ccccc3)c1C)CCC2` [Compound 6, Methyl 7-(((2-acetamidoethyl)amino)methyl)-4-((2-methyl-[1,1′-biphenyl]-3-yl)methoxy)-2,3-dihydro-1H-indene-5-carboxylate] registered a 50% inhibitory concentration (IC50) of more than 500 nM.

Regarding `CC(=O)NCCNCc1cc(Cl)c(OCc2cccc(-c3ccccc3)c2C)c2c1CCC2` [Compound 30, N-(2-(((6-chloro-7-((2-methyl-[1,1′-biphenyl]-3-yl)methoxy)-2,3-dihydro-1H-inden-4-yl)methyl)amino)ethyl)acetamide], the IC50 was in the range of 100 to 500 nM.

For the molecule `COc1cc(OCc2cccc(-c3ccccc3)c2C)c2c(c1CN1CCOC[C@H]1C(=O)O)CCC2` [Compound 98, (S)-4-((5-methoxy-7-((2-methyl-[1,1′-biphenyl]-3-yl)methoxy)-2,3-dihydro-1H-inden-4-yl)methyl)morpholine-3-carboxylic acid], the IC50 is less than 100 nM.

Regarding `Cc1c(COc2cc(OC[C@H]3C[C@H]3C(=O)O)c(CN3CCCC[C@H]3C(=O)O)c3c2CCC3)cccc1-c1ccccc1` [Compound 82, (S)-1-((5-(((1S,2R)-2-carboxycyclopropyl)methoxy)-7-((2-methyl-[1,1′-biphenyl]-3-yl)methoxy)-2,3-dihydro-1H-inden-4-yl)methyl)piperidine-2-carboxylic acid], the IC50 lay in the range of 100 to 500 nM.

Turning to `Cc1c(COc2ccc(CN3CCCC[C@H]3C(=O)O)c3c2CCC3)cccc1-c1ccccc1` [Compound 1, (S)-1-((7-((2-methyl-[1,1′-biphenyl]-3-yl)methoxy)-2,3-dihydro-1H-inden-4-yl)methyl) piperidine-2-carboxylic acid], the IC50 was 100 to 500 nM.

Take `Cc1c(COc2cc(OCc3cncc(C#N)c3)c(CN3CCC[C@@H]4C[C@@]43C(=O)O)c3c2CCC3)cccc1-c1ccccc1` (racemic) [Compound 51, rac-(1R,6S)-2-((5-((5-cyanopyridin-3-yl)methoxy)-7-((2-methyl-[1,1′-biphenyl]-3-yl)methoxy)-2,3-dihydro-1H-inden-4-yl)methyl)-2-azabicyclo[4.1.0]heptane-1-carboxylic acid]: the IC50 was less than 100 nM.

The molecule `CC(=O)NCCNCc1c(OCc2cncc(C(N)=O)c2)cc(OCc2cccc(-c3ccccc3)c2C)c2c1CCC2` [Compound 94, 5-(((4-(((2-acetamidoethyl)amino)methyl)-7-((2-methyl-[1,1′-biphenyl]-3-yl)methoxy)-2,3-dihydro-1H-inden-5-yl)oxy)methyl)nicotinamide] registered an IC50 of less than 100 nM.

The molecule `Cc1c(COc2cc(OCc3cccc(C#N)c3)c(CNC34CCC(C(=O)O)(CC3)CC4)c3c2CCC3)cccc1-c1ccccc1` [Compound 74, 4-(((5-((3-cyanobenzyl)oxy)-7-((2-methyl-[1,1′-biphenyl]-3-yl)methoxy)-2,3-dihydro-1H-inden-4-yl)methyl)amino)bicyclo[2.2.2]octane-1-carboxylic acid] gave a half-inhibitory concentration (IC50) of less than 100 nM.

With `CC(=O)NC1CCCN(Cc2c(OCc3cccc(C#N)c3)cc(OCc3cccc(-c4ccccc4)c3C)c3c2CCC3)C1` (stereo not drawn) [Compound 15, N-(1-((5-((3-cyanobenzyl)oxy)-7-((2-methyl-[1,1′-biphenyl]-3-yl)methoxy)-2,3-dihydro-1H-inden-4-yl)methyl)piperidin-3-yl)acetamide], the concentration for half-maximal inhibition (IC50) is less than 100 nM.

As to `COc1cc(OCc2cccc(-c3ccccc3)c2C#N)c2c(c1CN1CCC[C@@H]3C[C@@]31C(=O)O)CCC2` (racemic) [Compound 62, rac-(1R,6S)-2-((7-((2-cyano-[1,1′-biphenyl]-3-yl)methoxy)-5-methoxy-2,3-dihydro-1H-inden-4-yl)methyl)-2-azabicyclo[4.1.0]heptane-1-carboxylic acid], the IC50 is less than 100 nM.

`Cc1c(COc2cc(OCc3cccc(C#N)c3)c(CN3CCCC[C@H]3C(=O)O)c3c2CCC3)cccc1-c1ccccc1` [Compound 8, (S)-1-((5-((3-cyanobenzyl)oxy)-7-((2-methyl-[1,1′-biphenyl]-3-yl)methoxy)-2,3-dihydro-1H-inden-4-yl)methyl)piperidine-2-carboxylic acid]: the IC50 is less than 100 nM.

Turning to `Cc1c(COc2ccc(CN3CCCC[C@H]3C(=O)O)c3c2CCCC3)cccc1-c1ccccc1` [Compound 27, 1-((4-((2-methyl-[1,1′-biphenyl]-3-yl)methoxy)-5,6,7,8-tetrahydronaphthalen-1-yl)methyl)piperidine-2-carboxylic acid], the half-maximal inhibitory concentration (IC50) fell in the range of 100 to 500 nM.

Take `Cc1c(COc2cc(OCc3cncc(F)c3)c(CN3CCCC[C@H]3C(=O)O)c3c2CCC3)cccc1-c1ccccc1` [Compound 9, (S)-1-((5-((5-fluoropyridin-3-yl)methoxy)-7-((2-methyl-[1,1′-biphenyl]-3-yl)methoxy)-2,3-dihydro-1H-inden-4-yl)methyl)piperidine-2-carboxylic acid]: the half-inhibitory concentration (IC50) was less than 100 nM.

For the molecule `CC(=O)NCCNCc1c(OCc2cccc(C#N)c2)cc(OCc2cccc(-c3ccc(F)cc3)c2C)c2c1CCC2` [Compound 87, N-(2-(((5-((3-cyanobenzyl)oxy)-7-((4′-fluoro-2-methyl-[1,1′-biphenyl]-3-yl)methoxy)-2,3-dihydro-1H-inden-4-yl)methyl)amino)ethyl)acetamide], the IC50 is 100 to 500 nM.

The molecule `COc1cc(OCc2cccc(-c3cccc(OCCCN4CCC(F)(F)C4)c3C)c2C)c2c(c1CN1C[C@H](O)C[C@H]1C(=O)O)CCC2` [Compound 33, (2S,4R)-1-((7-((3′-(3-(3,3-difluoropyrrolidin-1-yl)propoxy)-2,2′-dimethyl-[1,1′-biphenyl]-3-yl)methoxy)-5-methoxy-2,3-dihydro-1H-inden-4-yl)methyl)-4-hydroxypyrrolidine-2-carboxylic acid] had a half-maximal inhibitory concentration (IC50) of more than 500 nM.
